Active and inactive are the calls of the source. No cut-off for these calls is given here.
Legend:
[1] = molecular target: T1, Alpha-1D adrenergic receptor (Rattus norvegicus) (UniProt P23944); experiment: Antagonist activity at alpha-1d adrenergic receptor in Wistar rat thoracic aorta assessed as inhibition of (-)-noradrenaline-induced contractions
T1 sequence (whole entry): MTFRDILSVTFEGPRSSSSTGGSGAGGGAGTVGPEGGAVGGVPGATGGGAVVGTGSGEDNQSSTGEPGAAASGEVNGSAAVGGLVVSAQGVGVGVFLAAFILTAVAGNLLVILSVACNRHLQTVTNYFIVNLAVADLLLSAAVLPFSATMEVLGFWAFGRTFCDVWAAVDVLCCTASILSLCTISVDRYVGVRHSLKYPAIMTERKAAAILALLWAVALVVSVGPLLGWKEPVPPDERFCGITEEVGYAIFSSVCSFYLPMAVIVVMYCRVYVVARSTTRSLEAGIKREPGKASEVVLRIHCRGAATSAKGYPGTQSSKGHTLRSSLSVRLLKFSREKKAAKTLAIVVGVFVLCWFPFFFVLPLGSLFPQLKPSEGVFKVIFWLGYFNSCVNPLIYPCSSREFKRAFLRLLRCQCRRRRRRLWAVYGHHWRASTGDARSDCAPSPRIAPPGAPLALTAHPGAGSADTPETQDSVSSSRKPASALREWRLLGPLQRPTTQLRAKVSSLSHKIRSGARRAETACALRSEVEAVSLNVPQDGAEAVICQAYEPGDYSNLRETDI

[2] = molecular target: T2, Alpha-1A adrenergic receptor (Rattus norvegicus) (UniProt P43140); experiment: Antagonist activity at alpha-1a adrenergic receptor in Wistar rat prostatic vas deferens assessed as inhibition of (-)-noradrenaline-induced contraction
T2 sequence (whole entry): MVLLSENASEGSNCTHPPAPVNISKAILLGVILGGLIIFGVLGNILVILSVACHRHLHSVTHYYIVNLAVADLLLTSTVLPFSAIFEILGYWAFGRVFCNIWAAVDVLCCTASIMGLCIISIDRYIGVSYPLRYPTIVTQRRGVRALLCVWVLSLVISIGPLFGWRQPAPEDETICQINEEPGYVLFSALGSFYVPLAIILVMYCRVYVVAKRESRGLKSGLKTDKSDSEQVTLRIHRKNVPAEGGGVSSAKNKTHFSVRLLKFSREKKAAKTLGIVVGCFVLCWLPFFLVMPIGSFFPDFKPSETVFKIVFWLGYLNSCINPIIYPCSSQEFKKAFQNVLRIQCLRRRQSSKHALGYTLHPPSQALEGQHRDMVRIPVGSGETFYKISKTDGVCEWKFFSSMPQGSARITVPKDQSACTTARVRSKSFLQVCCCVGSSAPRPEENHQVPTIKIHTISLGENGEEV

[3] = molecular target: T3, Alpha-1B adrenergic receptor (Homo sapiens, UniProt P35368); experiment: Displacement of [3H] prazosin from human cloned adrenoceptor alpha 1B expressed in CHO cell membrane incubated for 30 mins by liquid scintillation counter
T3 sequence (P35368 whole entry): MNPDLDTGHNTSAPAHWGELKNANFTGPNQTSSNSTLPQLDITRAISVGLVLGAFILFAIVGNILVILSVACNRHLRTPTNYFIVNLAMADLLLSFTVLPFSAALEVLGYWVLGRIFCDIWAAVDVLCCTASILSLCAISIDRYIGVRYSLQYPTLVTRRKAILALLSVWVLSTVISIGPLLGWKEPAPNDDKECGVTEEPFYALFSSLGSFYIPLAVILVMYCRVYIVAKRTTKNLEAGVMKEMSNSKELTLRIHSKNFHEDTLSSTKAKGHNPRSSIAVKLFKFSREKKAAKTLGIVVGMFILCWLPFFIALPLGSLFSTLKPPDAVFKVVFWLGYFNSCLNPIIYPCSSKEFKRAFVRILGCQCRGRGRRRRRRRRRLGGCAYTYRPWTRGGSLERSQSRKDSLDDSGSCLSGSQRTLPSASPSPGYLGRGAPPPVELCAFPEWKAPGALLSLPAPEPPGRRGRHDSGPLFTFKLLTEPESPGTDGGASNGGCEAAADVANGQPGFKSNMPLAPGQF

[4] = molecular target: T4, Alpha-1D adrenergic receptor (Homo sapiens, UniProt P25100); experiment: biochemical
T4 sequence (P25100 whole entry): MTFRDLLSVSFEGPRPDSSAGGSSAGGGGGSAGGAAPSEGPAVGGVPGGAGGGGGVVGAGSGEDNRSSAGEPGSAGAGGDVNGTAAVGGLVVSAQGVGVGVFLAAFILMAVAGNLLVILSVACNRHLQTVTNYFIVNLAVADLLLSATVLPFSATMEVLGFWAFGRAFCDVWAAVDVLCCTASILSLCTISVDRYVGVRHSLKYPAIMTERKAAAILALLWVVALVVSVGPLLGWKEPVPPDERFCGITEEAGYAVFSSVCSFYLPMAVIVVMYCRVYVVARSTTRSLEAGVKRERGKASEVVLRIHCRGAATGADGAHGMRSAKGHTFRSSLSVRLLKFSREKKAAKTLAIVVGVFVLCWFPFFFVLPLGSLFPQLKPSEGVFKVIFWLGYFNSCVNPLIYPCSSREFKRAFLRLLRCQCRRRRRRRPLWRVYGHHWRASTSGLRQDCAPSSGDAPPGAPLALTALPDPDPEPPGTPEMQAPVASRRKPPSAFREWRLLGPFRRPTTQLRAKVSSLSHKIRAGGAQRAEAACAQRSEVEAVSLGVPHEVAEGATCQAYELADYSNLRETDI
Description: Displacement of [3H] prazosin from human cloned adrenoceptor alpha 1D expressed in CHO cell membrane incubated for 30 mins by liquid scintillation counter

[5] = molecular target: T5, Alpha-1A adrenergic receptor (Homo sapiens, UniProt P35348); experiment: biochemical
T5 sequence (P35348 whole entry): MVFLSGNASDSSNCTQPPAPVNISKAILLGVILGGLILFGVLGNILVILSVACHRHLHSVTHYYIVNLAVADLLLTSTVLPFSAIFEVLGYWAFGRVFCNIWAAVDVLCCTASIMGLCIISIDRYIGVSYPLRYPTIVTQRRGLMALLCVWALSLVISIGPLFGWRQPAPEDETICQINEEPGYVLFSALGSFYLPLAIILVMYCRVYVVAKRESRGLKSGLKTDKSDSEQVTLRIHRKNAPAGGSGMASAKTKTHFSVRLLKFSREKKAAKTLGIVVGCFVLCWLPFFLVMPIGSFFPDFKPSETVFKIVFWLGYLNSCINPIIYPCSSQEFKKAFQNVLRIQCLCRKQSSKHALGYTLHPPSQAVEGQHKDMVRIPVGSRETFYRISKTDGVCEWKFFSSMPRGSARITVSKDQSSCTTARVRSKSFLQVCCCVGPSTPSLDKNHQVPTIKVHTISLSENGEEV
Description: Displacement of [3H] prazosin from human cloned adrenoceptor alpha 1A expressed in CHO cell membrane incubated for 30 mins by liquid scintillation counting

[6] = molecular target: T6, Alpha-1B adrenergic receptor (Rattus norvegicus) (UniProt P15823); experiment: Antagonist activity at alpha-1b adrenergic receptor in Wistar rat spleen assessed as inhibition of (-)-phenylephrine-induced contraction; assay type: tissue-based
T6 sequence (whole entry): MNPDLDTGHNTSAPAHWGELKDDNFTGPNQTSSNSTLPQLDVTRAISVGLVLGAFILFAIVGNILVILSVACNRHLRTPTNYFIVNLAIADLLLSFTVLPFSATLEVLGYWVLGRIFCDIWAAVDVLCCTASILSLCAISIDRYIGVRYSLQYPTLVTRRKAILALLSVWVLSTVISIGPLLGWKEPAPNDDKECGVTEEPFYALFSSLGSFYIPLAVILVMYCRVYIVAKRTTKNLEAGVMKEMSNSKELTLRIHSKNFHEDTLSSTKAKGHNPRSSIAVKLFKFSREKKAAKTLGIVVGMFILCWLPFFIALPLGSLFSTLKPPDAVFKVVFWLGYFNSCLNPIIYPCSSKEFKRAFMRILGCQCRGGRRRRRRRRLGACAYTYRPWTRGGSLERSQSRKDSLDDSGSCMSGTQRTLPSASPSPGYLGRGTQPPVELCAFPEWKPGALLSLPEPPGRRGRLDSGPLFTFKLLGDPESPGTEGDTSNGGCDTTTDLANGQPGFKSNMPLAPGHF

[7] = molecular target: T7, 5-hydroxytryptamine receptor 1A (Homo sapiens, UniProt P08908); experiment: Displacement of [3H]8-OH-DPAT from human cloned 5HT-1AR transfected in HeLa cells incubated for 30 mins by liquid scintillation counter; assay type: cell-based
T7 sequence (P08908 whole entry): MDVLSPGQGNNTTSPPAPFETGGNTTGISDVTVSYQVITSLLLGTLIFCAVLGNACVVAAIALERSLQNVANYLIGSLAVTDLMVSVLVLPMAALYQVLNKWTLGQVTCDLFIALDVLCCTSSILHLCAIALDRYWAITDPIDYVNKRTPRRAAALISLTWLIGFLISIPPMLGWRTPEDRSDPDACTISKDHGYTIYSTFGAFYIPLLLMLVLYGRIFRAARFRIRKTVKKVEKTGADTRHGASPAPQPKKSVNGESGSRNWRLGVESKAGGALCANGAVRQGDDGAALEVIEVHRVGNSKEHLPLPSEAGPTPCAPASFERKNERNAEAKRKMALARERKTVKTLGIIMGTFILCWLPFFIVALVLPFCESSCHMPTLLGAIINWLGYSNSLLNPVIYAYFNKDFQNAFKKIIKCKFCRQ

[8] = molecular target: T8, 5-hydroxytryptamine receptor 1A (Homo sapiens) (UniProt P08908); details: HeLa
T8 sequence (whole entry): T7 sequence (P08908 whole entry)
Description: Agonist activity at human recombinant 5HT1A receptor expressed in human HeLa cells assessed as increase in [35S]GTPgammaS binding incubated for 20 mins by liquid scintillation counter

Rattus norvegicus [9] = species: Rattus norvegicus; experiment: Selectivity for antagonist activity at Wistar rat thoracic aorta alpha 1D adrenoceptor over antagonist activity at Wistar rat spleen alpha 1B adrenoceptor
Rattus norvegicus [10] = species: Rattus norvegicus; experiment: Selectivity for antagonist activity at Wistar rat thoracic aorta alpha 1D adrenoceptor over antagonist activity at Wistar rat prostate vas deferens alpha 1A adrenoceptor
Rattus norvegicus [11] = experiment: Antidepressant activity in Sprague-Dawley rat assessed as increase in time spent in swimming at 0.5 mg/kg, ip by forced swim test; assay type: functional, organism-based
Rattus norvegicus [12] = experiment: Effect on locomotory activity in Sprague-Dawley rat assessed as distance travelled at 0.5 mg/kg, ip by open field test; assay type: functional, organism-based
Rattus norvegicus [13] = experiment: Antidepressant activity in Sprague-Dawley rat assessed as decrease in time of immobilization at 0.5 mg/kg, ip by forced swim test; assay type: functional, organism-based
Rattus norvegicus [14] = experiment: Anxiolytic activity at Sprague-Dawley rat assessed as increase in time spent in open arm at 0.5 mg/kg, ip by EPM test relative to control; assay type: functional
Rattus norvegicus [15] = experiment: Antidepressant activity in Sprague-Dawley rat assessed as time spent on climbing at 0.5 mg/kg, ip by forced swim test; assay type: functional, organism-based
Rattus norvegicus [16] = experiment: Anxiolytic activity at Sprague-Dawley rat assessed as number of open arm entries at 0.5 mg/kg, ip by EPM test; assay type: functional, organism-based
[17] = Half life in Sprague-Dawley rat plasma at 10 mg/kg, po measured upto 480 mins by LC/MS-MS analysis; assay type: ADME, organism-based

Compound	pKb [1]	pKb [2]	Ki [3]	Ki [4]	Ki [5]	pKb [6]	Ki [7]	pD2 [8]	Ratio pKb (Rattus norvegicus [9])	Ratio pKb (Rattus norvegicus [10])	Activity (Rattus norvegicus [11])	Activity (Rattus norvegicus [12])	inhibition (Rattus norvegicus [13])	Activity (Rattus norvegicus [14])	Activity (Rattus norvegicus [15])	Activity (Rattus norvegicus [16])	half-life [17]
COc1ccccc1OCCNC[C@H]1CO[C@H](C(c2ccccc2)c2ccccc2)O1 (relative stereo)	7.64	6.78	27.5 nM	7.08 nM	30.9 nM	6.82	2 nM										
c1ccc(OCCNCCC2COC(c3ccccc3)(c3ccccc3)O2)cc1 (stereo unspecified)	7.04	6.34	95.5 nM	30.2 nM	58.9 nM	6.49	724 nM										
c1ccc(OCCNCC[C@H]2CO[C@H](C(c3ccccc3)c3ccccc3)O2)cc1 (relative stereo)	7.22	5.71	166 nM	95.5 nM	89.1 nM	6.66	57.5 nM										
c1ccc(OCCNC[C@H]2CO[C@H](C(c3ccccc3)c3ccccc3)O2)cc1 (relative stereo)	6.7	6.29	102 nM	87.1 nM	120 nM	6.26	5.25 nM										
COc1ccccc1OCCNCC1COC(c2ccccc2)(c2ccccc2)O1 (stereo unspecified)	8.65	7.53				7.36		7.36									
c1ccc(OCCNC[C@@H]2CO[C@H](C(c3ccccc3)c3ccccc3)O2)cc1 (relative stereo)	6.72	6.22	102 nM	29.5 nM	427 nM	6.83	11.5 nM										
c1ccc(OCCNCC2COC(c3ccccc3)(c3ccccc3)O2)cc1 (stereo unspecified)	8.37	6.16				5.86		8.8	> 100	> 100							
c1ccc(OCCNCC[C@@H]2CO[C@H](C(c3ccccc3)c3ccccc3)O2)cc1 (relative stereo)	7.15	6.14	107 nM	75.9 nM	170 nM	6.43	60.3 nM										
Br.CCCN(CCC)C1CCc2cccc(O)c2C1 (stereo unspecified)											Active	inactive	Active	19%	inactive	inactive	27 min
COc1ccccc1OCCNC[C@@H]1CO[C@H](C(c2ccccc2)c2ccccc2)O1 (relative stereo)	7.52	6.16	37.2 nM	4.37 nM	977 nM	6.75	3.16 nM										
